Experimental data taken from patent US4616081A, “Cephalosporin compounds” (Asahi Kasei Kogyo Kabushiki Kaisha, priority 1982, dated 1986).

Key:
[1] = test system: Enterobact. cloacae GN336; experiment: MIC against Enterobact. cloacae GN336; format: cell-based; conditions: Bacterial count inoculated 10^6 cells/ml
Experimental: (§1) Nextly, antibacterial activity or minimum inhibitory concentration (MIC) was measured and the results are shown in Table 1 with respect to the following representative compounds according to the present invention. [drawing 19]
(§2) With respect to Compound Nos. 14 and 15, antibacterial activity or minimum inhibitory concentration (MIC) was measured and the results are shown in Table 2. [drawing 21]

Serratia marcescens = experiment: MIC against Serratia marcescens; format: cell-based; conditions: Bacterial count inoculated 10^6 cells/ml
Experimental: as §1, §2

E. coli W3630 PS3 = experiment: MIC against E. coli W3630 PS3; format: cell-based; conditions: Bacterial count inoculated 10^6 cells/ml
Experimental: as §1, §2

E. coli NIHJ-JC2 = experiment: MIC against E. coli NIHJ-JC2; format: cell-based; conditions: Bacterial count inoculated 10^6 cells/ml
Experimental: as §1, §2

E. coli W3630 = experiment: MIC against E. coli W3630; format: cell-based; conditions: Bacterial count inoculated 10^6 cells/ml
Experimental: as §1, §2

Shigella sonnei E33 = experiment: MIC against Shigella sonnei E33; format: cell-based; conditions: Bacterial count inoculated 10^6 cells/ml
Experimental: as §1, §2

Proteus morganii 0239 = experiment: MIC against Proteus morganii 0239; format: cell-based; conditions: Bacterial count inoculated 10^6 cells/ml
Experimental: as §1, §2

Proteus rettgeri ACR = experiment: MIC against Proteus rettgeri ACR; format: cell-based; conditions: Bacterial count inoculated 10^6 cells/ml
Experimental: as §1, §2

Sarcina lutea ATCC 9341 = experiment: MIC against Sarcina lutea ATCC 9341; format: cell-based; conditions: Bacterial count inoculated 10^6 cells/ml
Experimental: as §1, §2

Bac. subtilis ATCC 6633 = experiment: MIC against Bac. subtilis ATCC 6633; format: cell-based; conditions: Bacterial count inoculated 10^6 cells/ml
Experimental: as §2

[2] = test system: Salm. enteritidis Gaertner; experiment: MIC against Salm. enteritidis Gaertner; format: cell-based; conditions: Bacterial count inoculated 10^6 cells/ml
Experimental: as §1, §2

Ps. aeruginosa 0812 M2 = experiment: MIC against Ps. aeruginosa 0812 M2; format: cell-based; conditions: Bacterial count inoculated 10^6 cells/ml
Experimental: as §1, §2

Staph. aureus ATCC 6538P = experiment: MIC against Staph. aureus ATCC 6538P; format: cell-based; conditions: Bacterial count inoculated 10^6 cells/ml
Experimental: as §1, §2

Strept. pyogenes NY5 = experiment: MIC against Strept. pyogenes NY5; format: cell-based; conditions: Bacterial count inoculated 10^6 cells/ml
Experimental: as §1, §2

[3] = test system: Enterobact. aerogenes 0655; experiment: MIC against Enterobact. aerogenes 0655; format: cell-based; conditions: Bacterial count inoculated 10^6 cells/ml
Experimental: as §1, §2

[4] = test system: Citrobact. freundii GN346; experiment: MIC against Citrobact. freundii GN346; format: cell-based; conditions: Bacterial count inoculated 10^6 cells/ml
Experimental: as §1, §2

[5] = test system: Klebs. pneumoniae ATCC 10031; experiment: MIC against Klebs. pneumoniae ATCC 10031; format: cell-based; conditions: Bacterial count inoculated 10^6 cells/ml
Experimental: as §1, §2

Staph. aureus MS27 = experiment: MIC against Staph. aureus MS27; format: cell-based; conditions: Bacterial count inoculated 10^6 cells/ml
Experimental: as §1, §2

[6] = maximum blood concentration after oral administration in Wister rats (HPLC and Bioassay); format: in vivo; conditions: Wister rat, fasted, 30 mg/kg, solution of pH 7 in phosphate buffer
Experimental: Further in the compounds according to the present invention, intestinal absorption is improved by the introduction of amino acids at the 3-position thereof. For example, comparison of the maximum blood concentration of the Compound Nos. 2, 3, 7, 8, 14, 15 and 23 with that of Comparative Compound (b) establishes and affirms the effects, as is shown below. In the above test, the method for measurement of blood concentration was as follows. Rate: Wister rat weighing 170 to 220 g Dose: 30 mg/kg Wister rats were fasted from the previous night but freely accessible to water. Each of drugs was administered as a solution of pH 7 in a phosphate buffer, when orally administered. The blood concentration was measured in accordance with the High Performance Liquid Chromatography (HPLC) method and the Bioassay method by using E. coli as bacteria for test.

[7] = acute toxicity test using mice, intraperitoneal; conditions: mouse, in vivo, ip
From the text: In addition to excellent antibacterial activity, the compounds of the present invention are low in toxicity. For example, in acute toxicity test using mice, the following results were obtained with Compound Nos. 2, 3, 7, 14, 15 and 23 which were intraperitoneally administered.

SMILES	Minimum Inhibitory Concentration (MIC) [1]	Minimum Inhibitory Concentration (MIC) (Serratia marcescens)	Minimum Inhibitory Concentration (MIC) (E. coli W3630 PS3)	Minimum Inhibitory Concentration (MIC) (E. coli NIHJ-JC2)	Minimum Inhibitory Concentration (MIC) (E. coli W3630)	Minimum Inhibitory Concentration (MIC) (Shigella sonnei E33)	Minimum Inhibitory Concentration (MIC) (Proteus morganii 0239)	Minimum Inhibitory Concentration (MIC) (Proteus rettgeri ACR)	Minimum Inhibitory Concentration (MIC) (Sarcina lutea ATCC 9341)	Minimum Inhibitory Concentration (MIC) (Bac. subtilis ATCC 6633)	Minimum Inhibitory Concentration (MIC) [2]	Minimum Inhibitory Concentration (MIC) (Ps. aeruginosa 0812 M2)	Minimum Inhibitory Concentration (MIC) (Staph. aureus ATCC 6538P)	Minimum Inhibitory Concentration (MIC) (Strept. pyogenes NY5)	Minimum Inhibitory Concentration (MIC) [3]	Minimum Inhibitory Concentration (MIC) [4]	Minimum Inhibitory Concentration (MIC) [5]	Minimum Inhibitory Concentration (MIC) (Staph. aureus MS27)	Cmax [6]	LD50 [7]
Cc1nnc(SCC2=C(C(=O)O)N3C(=O)C(NC(=O)Cn4cnnn4)C3SC2)s1 (stereo not shown) [Comparative Compound (a), reference compound]	> 100	> 100	3.1	1.6	3.1	1.6	> 100	> 100	0.8	0.2	3.1	> 100	0.4	0.2	> 100	> 100	3.1	1.6		
CO/N=C(\C(=O)N[C@@H]1C(=O)N2C(C(=O)O)=C(C[n+]3cccc(CC(N)C(=O)O)c3)CS[C@H]12)c1csc(N)n1 (stereo partly shown) [Compound No. 15]	0.2	0.4	0.1	0.2	0.2	≤ 0.1	0.2	0.2	≤ 0.1	1.6	≤ 0.1	6.3	3.1	≤ 0.1	0.2	12.5	0.1	6.3	12000 ng/mL	10000 to 12000 mg/kg
CO/N=C(\C(=O)N[C@@H]1C(=O)N2C(C(=O)O)=C(C[n+]3ccc(CC(N)C(=O)O)cc3)CS[C@H]12)c1csc(N)n1 (stereo partly drawn) [Compound No. 14, 7β-[(Z)-2-(2-amino-4-thiazolyl)-2-(methoxyimino)acetamido]-3-[4-(2-amino-2-carboxy)ethyl-1-pyridiummethyl]-3-cephem-4-carboxylic acid]	0.2	0.1	≤ 0.1	0.1	≤ 0.1	≤ 0.1	0.2	0.2	0.8	≤ 0.1	≤ 0.1	3.1	6.3	0.1	0.2	12.5	≤ 0.1	3.1	9000 ng/mL	9000 to 10000 mg/kg
